Experiment [1] deals with SFRP2 and VEGF-stimulated in vitro tube formation. To be noted: cited from earlier work.
The next experiment relates to breast tumor xenograft. Conditions: in vivo; cited from earlier work.
Experiment [2] concerns endothelial and breast cancer cells. To be noted: cited from earlier work.
For experiment [3], the system named is triple-negative mammary carcinoma. The experiment can be described thus: Combined inhibition of FKBP1A and PIN1 in triple-negative mammary carcinoma (tumor stem cell character, apoptosis induction). The format is cell-based. Conditions: FKBP1A-specific siRNA and co-incubation with ATRA.
The next experiment has as its target T1, FKBP1A (Homo sapiens, UniProt P62942).
T1 construct: The cells were then washed with PBS, lysed and the expression of FKBP1A was analyzed by western blotting; endogenous in cells; host or cells: MDA-MB-231
The experiment can be described thus: Anti-tumor effect on tumor stem cell and EMT markers by PROTAC-mediated FKBP1A expression reduction. It is filed as cell-based.

Molecules are shown by their SMILES.

T1 sequence (P62942 whole entry): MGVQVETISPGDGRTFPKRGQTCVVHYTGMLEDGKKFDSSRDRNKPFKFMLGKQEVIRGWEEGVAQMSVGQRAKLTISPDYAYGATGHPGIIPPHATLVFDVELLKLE

With `C=CC[C@@H]1/C=C(\C)C[C@H](C)C[C@H](OC)[C@H]2O[C@@](O)(C(=O)C(=O)N3CCCC[C@H]3C(=O)O[C@H](/C(C)=C/[C@@H]3CC[C@@H](O)[C@H](OC)C3)[C@H](C)[C@@H](O)CC1=O)[C@H](C)C[C@@H]2OC` [tacrolimus], the “SFRP2 and VEGF-stimulated in vitro tube formation” value in experiment [1] is “inhibit SFRP2 and VEGF-stimulated in vitro tube formation”. For the same compound, the “Breast tumor xenograft growth” value in the experiment on breast tumor xenograft is reported as “attenuates breast tumor xenograft growth in vivo”. Besides, the “Migration of endothelial and breast cancer cells” value in experiment [2] is “inhibit the migration of endothelial and breast cancer cells”.

As to `CC1=C(/C=C/C(C)=C/C=C/C(C)=C/C(=O)O)C(C)(C)CCC1` [ATRA, all-trans retinoic acid], in experiment [3], the “Effect on reduction of tumor stem cell character and ability to induce apoptosis” value was “strong synergistic effect”.

On to `CO[C@H]1C[C@@H]2CC[C@@H](C)[C@@](O)(O2)C(=O)C(=O)N2CCCC[C@H]2C(=O)O[C@H]([C@H](C)C[C@@H]2CC[C@@H](OCCOCc3cn(CCOCCOCCNc4cccc5c4C(=O)N(C4CCC(=O)NC4=O)C5=O)nn3)[C@H](OC)C2)CC(=O)[C@H](C)/C=C(\C)[C@@H](O)[C@@H](OC)C(=O)[C@H](C)C[C@H](C)/C=C/C=C/C=C/1C` (some centres unmarked) [FKBP12 PROTAC RC32], for which the “Anti-tumor effect on tumor stem cell and EMT markers compared to pure inhibition of the enzyme function of FKBP1A” value on FKBP1A was “stronger anti-tumor effect”.

The record behind these values is patent publication US20230133761A1, “INHIBITION OF FKBP1A FOR THE TREATMENT OF TRIPLE-NEGATIVE MAMMARY CARCINOMA” (Heinrich-Heine-Universität Düsseldorf, priority 2020, published 2023).
